Columns and labels:
Butyrylcholinesterase = Butyrylcholinesterase (Rattus norvegicus, UniProt Q9JKC1)
Description: Inhibition of rat serum butyrylcholinesterase, in the presence of a specific AChE inhibitor; BW284c51

Acetylcholinesterase = molecular target: T1, Acetylcholinesterase (Rattus norvegicus, UniProt P37136); experiment: biochemical
T1 sequence (P37136 whole entry): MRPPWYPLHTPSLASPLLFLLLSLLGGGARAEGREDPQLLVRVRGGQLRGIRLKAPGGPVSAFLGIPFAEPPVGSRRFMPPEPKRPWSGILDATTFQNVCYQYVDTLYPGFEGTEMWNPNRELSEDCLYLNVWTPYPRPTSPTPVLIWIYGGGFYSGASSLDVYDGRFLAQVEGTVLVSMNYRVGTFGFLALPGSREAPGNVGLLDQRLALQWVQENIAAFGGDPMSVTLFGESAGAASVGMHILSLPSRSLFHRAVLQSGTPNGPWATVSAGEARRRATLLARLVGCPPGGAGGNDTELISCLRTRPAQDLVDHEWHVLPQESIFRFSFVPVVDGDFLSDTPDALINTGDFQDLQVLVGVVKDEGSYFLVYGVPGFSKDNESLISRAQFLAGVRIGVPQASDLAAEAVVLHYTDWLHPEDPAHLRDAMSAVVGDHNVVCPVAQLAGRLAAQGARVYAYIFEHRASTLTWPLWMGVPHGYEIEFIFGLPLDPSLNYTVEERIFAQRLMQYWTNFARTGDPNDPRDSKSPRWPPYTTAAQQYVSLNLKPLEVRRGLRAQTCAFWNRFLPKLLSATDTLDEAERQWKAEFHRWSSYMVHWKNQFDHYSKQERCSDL
Description: Inhibition of acetylcholinesterase activity in rat cerebral cortex homogenate, in the presence of a specific butyrylcholinesterase (BChE) inhibitor; ethopropazine

Sequence of Butyrylcholinesterase (Q9JKC1 whole entry): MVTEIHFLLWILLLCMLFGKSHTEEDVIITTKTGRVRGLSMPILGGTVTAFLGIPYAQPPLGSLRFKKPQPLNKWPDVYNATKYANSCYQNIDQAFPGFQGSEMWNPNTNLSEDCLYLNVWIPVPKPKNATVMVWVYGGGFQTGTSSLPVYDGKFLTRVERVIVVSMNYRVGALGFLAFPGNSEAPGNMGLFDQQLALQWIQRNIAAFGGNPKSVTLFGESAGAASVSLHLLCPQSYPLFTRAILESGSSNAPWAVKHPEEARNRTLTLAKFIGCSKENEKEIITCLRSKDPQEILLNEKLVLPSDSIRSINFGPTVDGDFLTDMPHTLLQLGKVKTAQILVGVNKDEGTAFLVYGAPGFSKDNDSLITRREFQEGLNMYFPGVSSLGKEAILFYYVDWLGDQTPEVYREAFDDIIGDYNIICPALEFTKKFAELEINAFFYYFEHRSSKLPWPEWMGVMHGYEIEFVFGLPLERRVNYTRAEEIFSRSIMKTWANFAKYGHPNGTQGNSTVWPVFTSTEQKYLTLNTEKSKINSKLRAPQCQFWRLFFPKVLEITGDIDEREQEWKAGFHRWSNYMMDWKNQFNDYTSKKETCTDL

Compound | IC50 (Butyrylcholinesterase) [nM] | IC50 (Acetylcholinesterase) [nM]
CN(C)CCCCCCCCCCCCNc1c2c(nc3ccccc13)CCCC2 | 695 | 264
CN(C)CCCCCCCCCCNc1c2c(nc3ccccc13)CCCC2 | 581 | 45
NCCCCCCCNc1c2c(nc3ccccc13)CCCC2 | 357 | 319
NCCCCCCCCCCNc1c2c(nc3ccccc13)CCCC2 | 682 | 147
CN(C)CCCCCCCCNc1c2c(nc3ccccc13)CCCC2 | 170 | 47
c1ccc2c(NCCCCCCCNc3ccncc3)c3c(nc2c1)CCCC3 | 302 | 12.8
c1ccc2c(NCCCCCCCCNc3c4c(nc5ccccc35)CCCC4)ccnc2c1 | 126 | 8.8
CN(C)CCCCCCCCCNc1c2c(nc3ccccc13)CCCC2 | 237 | 71
c1ccc2c(NCCCCCCCCCCCCNc3ccncc3)c3c(nc2c1)CCCC3 | 377 | 261
CN(C)CCCCCCCNc1c2c(nc3ccccc13)CCCC2 | 143 | 52
c1ccc2c(NCCCCCCCCCNc3ccncc3)c3c(nc2c1)CCCC3 | 200 | 83.6
c1ccc2c(NCCCCCCCCNc3ccncc3)c3c(nc2c1)CCCC3 | 157 | 13.6
c1ccc2c(NCCCCCCCCCCNc3ccncc3)c3c(nc2c1)CCCC3 | 427 | 176
c1ccc2c(NCCCCCCCCCNc3c4c(nc5ccccc35)CCCC4)ccnc2c1 | 156 | 38.7
NCCCCCCCCCCCCNc1c2c(nc3ccccc13)CCCC2 | 791 | 180
NCCCCCCCCNc1c2c(nc3ccccc13)CCCC2 | 202 | 89.4
c1ccc2c(NCCCCCCCNc3c4c(nc5ccccc35)CCCC4)ccnc2c1 | 110 | 10.1
NCCCCCCCCCNc1c2c(nc3ccccc13)CCCC2 | 687 | 131
Cc1cccc2c(NCCCCCCCNc3c4c(nc5ccccc35)CCCC4)c3c(nc12)CCCC3 | – | 1.5
Cc1cccc2c(NCCCCCCCCNc3c4c(nc5ccccc35)CCCC4)c3c(nc12)CCCC3 | 105 | 7.8
Nc1ccncc1 [DALFAMPRIDINE] | – | > 500000
Nc1ccnc2ccccc12 [QUINOLIN-4-AMINE] | – | 50700

Reference: ChEMBL document CHEMBL1132438, “Heterodimeric tacrine-based acetylcholinesterase inhibitors: investigating ligand-peripheral site interactions” (J Med Chem, 1999)
